pEC50, pIC50: −log10 of the molar value.
Target: Poly [ADP-ribose] polymerase 1 (Homo sapiens, UniProt P09874)
Assay: Inhibition of PARP1 by scintillation proximity assay

Sequence of Poly [ADP-ribose] polymerase 1 (P09874 whole entry): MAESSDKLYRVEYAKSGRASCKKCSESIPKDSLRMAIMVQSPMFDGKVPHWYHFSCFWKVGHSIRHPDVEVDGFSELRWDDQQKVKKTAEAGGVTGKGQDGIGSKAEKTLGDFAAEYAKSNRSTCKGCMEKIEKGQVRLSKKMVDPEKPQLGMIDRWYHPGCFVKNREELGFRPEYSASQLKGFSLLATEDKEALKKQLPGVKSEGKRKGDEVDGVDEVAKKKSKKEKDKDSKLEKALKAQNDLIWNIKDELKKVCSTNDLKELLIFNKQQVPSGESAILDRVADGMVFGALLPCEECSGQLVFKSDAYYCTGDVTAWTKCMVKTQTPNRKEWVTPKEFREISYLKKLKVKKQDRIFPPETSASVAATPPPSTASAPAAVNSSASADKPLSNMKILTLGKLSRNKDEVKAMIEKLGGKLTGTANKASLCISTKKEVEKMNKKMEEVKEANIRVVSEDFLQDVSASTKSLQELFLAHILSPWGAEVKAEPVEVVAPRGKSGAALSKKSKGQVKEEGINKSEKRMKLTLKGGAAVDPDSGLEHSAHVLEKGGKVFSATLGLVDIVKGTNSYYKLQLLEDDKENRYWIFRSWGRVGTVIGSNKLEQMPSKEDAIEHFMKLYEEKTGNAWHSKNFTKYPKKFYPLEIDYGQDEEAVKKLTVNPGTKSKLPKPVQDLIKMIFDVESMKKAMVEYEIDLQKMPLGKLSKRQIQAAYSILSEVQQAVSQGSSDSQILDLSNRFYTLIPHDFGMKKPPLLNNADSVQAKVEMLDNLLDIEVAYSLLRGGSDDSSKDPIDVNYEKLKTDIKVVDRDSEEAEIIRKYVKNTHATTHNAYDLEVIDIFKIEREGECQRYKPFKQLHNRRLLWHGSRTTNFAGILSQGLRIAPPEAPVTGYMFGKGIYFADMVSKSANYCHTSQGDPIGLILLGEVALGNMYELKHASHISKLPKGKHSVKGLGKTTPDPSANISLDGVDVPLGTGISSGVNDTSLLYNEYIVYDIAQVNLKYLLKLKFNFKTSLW

Q: `CC(C)Cc1cc2[nH]c(=O)c3ccccc3n2n1` was tested. Which pIC50 did it give?
A: 6.40

Q: With `O=c1[nH]c2cc(-c3ccc(OC(F)(F)F)cc3)nn2c2ccccc12` as the compound, how does the pIC50 read?
A: < 6.00

Q: How did the pIC50 turn out when `CN1CCCN(C(=O)c2cnn3c2[nH]c(=O)c2ccccc23)CC1` was run?
A: < 6.00

Q: How did the pIC50 turn out when `O=C(c1cccc(-c2cc3[nH]c(=O)c4ccccc4n3n2)c1)N1CCN2CCC[C@H]2C1` was run?
A: 6.30

Q: `O=c1[nH]c2cc(C3CCCCC3)nn2c2ccccc12` was tested. Which pIC50 did it give?
A: 6.70

Q: How did the pIC50 turn out when `Cc1ccc(-c2cc3[nH]c(=O)c4ccccc4n3n2)cc1` was run?
A: 6.30

Q: How did the pIC50 turn out when `CN1CCC(CNC(=O)c2cc3[nH]c(=O)c4ccccc4n3n2)C1` (stereo not given) was run?
A: 7.10

Q: `N#Cc1ccc(-c2cc3[nH]c(=O)c4ccccc4n3n2)cc1` was tested. Which pIC50 did it give?
A: < 6.00

Q: `CN(C)CCN(C)C(=O)c1cc2[nH]c(=O)c3ccccc3n2n1` was tested. Which pIC50 did it give?
A: 7.00

Q: `O=c1[nH]c2cc(-c3cccc(Cl)c3)nn2c2ccccc12` was tested. Which pIC50 did it give?
A: 6.30

Q: With `O=c1[nH]c2cc(-c3cccc(Br)c3)nn2c2ccccc12` as the compound, how does the pIC50 read?
A: 6.22

Q: `O=C(NCCCN1CCOCC1)c1cc2[nH]c(=O)c3ccccc3n2n1` was tested. Which pIC50 did it give?
A: 6.85

Q: How did the pIC50 turn out when `O=c1[nH]c2cc(-c3cccs3)nn2c2ccccc12` was run?
A: 6.82

Q: With `O=c1[nH]c2cc(-c3ccco3)nn2c2ccccc12` as the compound, how does the pIC50 read?
A: 6.70

Q: `Cc1cc2[nH]c(=O)c3ccccc3n2n1` was tested. Which pIC50 did it give?
A: 6.52

Q: With `CN1CCCN(C(=O)c2cc3[nH]c(=O)c4ccccc4n3n2)CC1` as the compound, how does the pIC50 read?
A: 8.00

Q: How did the pIC50 turn out when `COc1cccc(-c2cc3[nH]c(=O)c4ccccc4n3n2)c1OC` was run?
A: 7.00

Q: `CN(C)CCN(C)C(=O)c1cccc(-c2cc3[nH]c(=O)c4ccccc4n3n2)c1` was tested. Which pIC50 did it give?
A: 6.10

Q: How did the pIC50 turn out when `CN1CCN(C(=O)c2cnn3c2[nH]c(=O)c2ccccc23)CC1` was run?
A: < 6.00

Q: `CN1CCN(C(=O)c2ccc(-c3cc4[nH]c(=O)c5ccccc5n4n3)cc2)CC1` was tested. Which pIC50 did it give?
A: 5.85

Q: With `CCc1ccc(-c2cc3[nH]c(=O)c4ccccc4n3n2)cc1` as the compound, how does the pIC50 read?
A: 6.30

Q: `O=c1[nH]c2cc(-c3ccc(Br)cc3)nn2c2ccccc12` was tested. Which pIC50 did it give?
A: 6.15

Q: With `CN(C)CCN(C)C(=O)c1ccc(-c2cc3[nH]c(=O)c4ccccc4n3n2)cc1` as the compound, how does the pIC50 read?
A: 5.89

Q: With `O=C(c1cc2[nH]c(=O)c3ccccc3n2n1)N1CCCNCC1` as the compound, how does the pIC50 read?
A: 7.52

Q: `O=C(c1cc2[nH]c(=O)c3ccccc3n2n1)N1CCC(CN2CCOCC2)CC1` was tested. Which pIC50 did it give?
A: 5.96

Q: With `O=C(NCCC1(N2CCOCC2)CCCC1)c1cc2[nH]c(=O)c3ccccc3n2n1` as the compound, how does the pIC50 read?
A: 7.05

Q: With `O=C(c1cnn2c1[nH]c(=O)c1ccccc12)N1CCCNCC1` as the compound, how does the pIC50 read?
A: < 6.00

Q: With `CN1CCN(C(=O)c2cc3[nH]c(=O)c4ccccc4n3n2)CC1` as the compound, how does the pIC50 read?
A: 6.52

Q: How did the pIC50 turn out when `COc1ccc(-c2cc3[nH]c(=O)c4ccccc4n3n2)c(OC)c1` was run?
A: 6.70

Q: How did the pIC50 turn out when `CN1CCN(C(=O)c2cccc(-c3cc4[nH]c(=O)c5ccccc5n4n3)c2)CC1` was run?
A: 6.00

Q: With `CN1CCC(CNC(=O)c2cc3[nH]c(=O)c4ccccc4n3n2)CC1` as the compound, how does the pIC50 read?
A: 7.15

Q: `O=c1[nH]c2cc(-c3ccc(F)cc3)nn2c2ccccc12` was tested. Which pIC50 did it give?
A: < 6.00

Q: `O=C(NCCN1CCOCC1)c1cnn2c1[nH]c(=O)c1ccccc12` was tested. Which pIC50 did it give?
A: < 6.00

Q: How did the pIC50 turn out when `COc1cc(-c2cc3[nH]c(=O)c4ccccc4n3n2)cc(OC)c1OC` was run?
A: 7.52

Q: With `O=C(c1cc2[nH]c(=O)c3ccccc3n2n1)N1CCN(CC2CC2)CC1` as the compound, how does the pIC50 read?
A: 6.52

Q: How did the pIC50 turn out when `CCCc1ccc(-c2cc3[nH]c(=O)c4ccccc4n3n2)cc1` was run?
A: < 6.00

Q: With `O=C(c1ccc(-c2cc3[nH]c(=O)c4ccccc4n3n2)cc1)N1CCN2CCC[C@H]2C1` as the compound, how does the pIC50 read?
A: 5.60

Q: `O=C(c1cc2[nH]c(=O)c3ccccc3n2n1)N1CCN2CCC[C@H]2C1` was tested. Which pIC50 did it give?
A: 6.22

Q: `COc1ccc(-c2cc3[nH]c(=O)c4ccccc4n3n2)cc1OC` was tested. Which pIC50 did it give?
A: 6.70

Q: How did the pIC50 turn out when `O=C(NCCN1CCOCC1)c1cc2[nH]c(=O)c3ccccc3n2n1` was run?
A: 6.85

Q: `O=c1[nH]c2cc(-c3ccc(Cl)cc3)nn2c2ccccc12` was tested. Which pIC50 did it give?
A: 6.30

Q: `O=c1[nH]c2cc(-c3cccc(F)c3)nn2c2ccccc12` was tested. Which pIC50 did it give?
A: < 6.00

Q: With `CC(C)(C)c1ccc(-c2cc3[nH]c(=O)c4ccccc4n3n2)cc1` as the compound, how does the pIC50 read?
A: < 6.00

Q: With `O=c1[nH]c2cc(-c3ccccc3)nn2c2ccccc12` as the compound, how does the pIC50 read?
A: 7.00

System: HeLa
Assay: Inhibition of PAR polymer formation in H2O2-stimulated human HeLa cells
Type: functional, cell-based

Q: With `CN1CCCN(C(=O)c2cc3[nH]c(=O)c4ccccc4n3n2)CC1` as the compound, how does the pEC50 read?
A: 5.41
